{"source": "ChEMBL document CHEMBL1125981", "about": "“Enantioselective total synthesis and pharmacologic profile of 12-deoxy-12(S)-methyl leukotriene B4” (Bioorg Med Chem Lett, 1991)", "key": {"[1]": {"organism": "Homo sapiens", "assay": "Compound was tested for its ability to inhibit human neutrophil degranulation induced by LTB4", "assay_type": "functional"}, "[2]": {"target": "Leukotriene B4 receptor 1 (Homo sapiens, UniProt Q15722)", "sequence (Q15722 whole entry)": "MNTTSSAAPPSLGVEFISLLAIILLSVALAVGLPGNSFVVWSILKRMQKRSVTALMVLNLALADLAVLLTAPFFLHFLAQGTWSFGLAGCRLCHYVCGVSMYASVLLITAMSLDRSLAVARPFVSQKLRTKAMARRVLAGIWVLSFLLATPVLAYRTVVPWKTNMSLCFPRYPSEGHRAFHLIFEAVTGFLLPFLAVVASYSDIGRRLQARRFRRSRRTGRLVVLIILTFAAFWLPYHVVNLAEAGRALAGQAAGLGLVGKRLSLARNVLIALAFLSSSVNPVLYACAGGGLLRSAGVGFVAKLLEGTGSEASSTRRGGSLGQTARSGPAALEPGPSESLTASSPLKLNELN", "assay": "Compound was tested for its antagonist activity in a LTB4 human neutrophil receptor binding assay using the natural ligand itself"}}}
{"smiles": "CCCCC/C=C\\C[C@@H](C)/C=C/C=C/C=C/[C@@H](O)CCCC(=O)O", "values": [{"measurement": "IC50", "setting": "[1]", "value": 3.4, "unit": "µM"}, {"measurement": "IC50", "setting": "[2]", "value": 3.8, "unit": "µM"}]}
